Active and inactive are the calls of the source. The calls are words filed in the database; no cut-off is given here.
Tests used:
[1] = species: Mus musculus; test: Induction of wound healing in BALB/c mouse model of full-thickness wounds assessed as increase in recruitment of total macrophages in wound skin at 50 ug/ml, TOP bid measured after 2 days by IHC analysis; type: functional; conditions: dose 50.0 µg/ml, time 2.0 day
[2] = Induction of wound healing in BALB/c mouse model of full-thickness wounds at 200 ug/ml, TOP bid measured after 4 days (reference value: 48.6 %); type: functional; conditions: dose 200 µg/ml, time 4 day
[3] = test system: RAW264.7; test: Upregulation of phosphorylated p38 level in mouse RAW264.7 cells at 2.5 to 20 uM incubated for 4 hrs by Western blot analysis; type: functional, cell-based; conditions: dose 2.5-20 µM
[4] = species: Mus musculus; test: Induction of wound healing in BALB/c mouse model of full-thickness wounds assessed as […] in IL-10 level in wound skin at 50 ug/ml, TOP bid measured after 2 days by ELISA; type: functional; conditions: dose 50.0 µg/ml, time 2.0 day
[5] = test system: RAW264.7; test: Induction of phagocytosis in mouse RAW264.7 cells cultured with Escherichia coli ATCC 25922 assessed as number of surviving engulfed bacteria at 2.5 uM incubated for 24 hrs followed by bacterial exposure for 1 hr and further treated with gentamycin for 2 hrs by plate counting method (reference value: 37); type: functional; conditions: time 27 hrs
[6] = test system: RAW264.7; test: Upregulation of phosphorylated ERK level in mouse RAW264.7 cells at 2.5 to 20 uM incubated for 4 hrs by Western blot analysis; type: functional, cell-based; conditions: dose 2.5-20 µM
[7] = test system: Aorta; test: Ex vivo angiogenic activity in C57BL/6 mouse aortic ring assessed as increase in sprouting by measuring vessel outgrowth area at 20 uM measured for 7 days by microscopic analysis relative to control; type: functional; conditions: time 7 day
[8] = test system: Aorta; test: Ex vivo angiogenic activity in C57BL/6 mouse aortic ring assessed as increase in sprouting by measuring vessel outgrowth area at 10 uM measured for 7 days by microscopic analysis relative to control; type: functional; conditions: time 7 day
[9] = test system: HUVEC; test: Induction of cell migration in Aprepitant-treated HUVEC cells assessed as healing rate at 20 uM measured after 24 hrs by scratch healing assay (reference value: 30.2 %); type: functional, Homo sapiens
[10] = test system: HUVEC; test: Angiogenic activity in HUVEC cells assessed as increase in tube formation at 20 uM measured for 4 hrs by microscopic analysis relative to control; type: functional, Homo sapiens
[11] = species: Mus musculus; test: Induction of wound healing in BALB/c mouse model of full-thickness wounds assessed as increase in phosphorylated Smad2 level in wound skin at 50 to 200 ug/ml, TOP bid measured after 4 days by Western blot analysis; type: functional; conditions: dose 50-200 µg/ml, time 4.0 day
[12] = Induction of TGF-beta1 level in Aprepitant-treated mouse RAW264.7 cells at 20 uM incubated for 24 hrs by ELISA; type: functional
[13] = test system: RAW264.7; test: Effect on total p38 level in mouse RAW264.7 cells at 2.5 to 20 uM incubated for 4 hrs by Western blot analysis; type: functional, cell-based; conditions: dose 2.5-20 µM
[14] = species: Mus musculus; test: Induction of wound healing in BALB/c mouse model of full-thickness wounds assessed as increase in phosphorylated Smad3 level in wound skin at 50 to 200 ug/ml, TOP bid measured after 4 days by Western blot analysis; type: functional; conditions: dose 50-200 µg/ml, time 4.0 day
[15] = test system: HaCaT; test: Induction of cell migration in human HaCaT cells assessed as healing rate at 20 uM measured after 24 hrs by scratch healing assay (reference value: 36.8 %); type: functional
[16] = test system: HaCaT; test: Induction of cell migration in Mitomycin C-treated human HaCaT cells assessed as healing rate at 20 uM measured after 24 hrs by scratch healing assay (reference value: 21.3 %); type: functional
[17] = species: Mus musculus; test: Induction of wound healing in BALB/c mouse model of full-thickness wounds assessed as decrease in TNF-alpha level in wound skin at 50 ug/ml, TOP bid measured after 4 days by ELISA; type: functional; conditions: dose 50.0 µg/ml, time 4.0 day
[18] = species: Mus musculus; test: Induction of wound healing in BALB/c mouse model of full-thickness wounds assessed as decrease in recruitment of M1-type macrophages in wound skin at 50 ug/ml, TOP bid measured after 4 days by IHC analysis; type: functional; conditions: dose 50.0 µg/ml, time 4.0 day
[19] = species: Mus musculus; test: Induction of wound healing in BALB/c mouse model of full-thickness wounds assessed as dense arrangement of collagen fibers at 50 to 200 ug/ml, TOP bid measured after 8 days by Masson's Trichome staining based analysis; type: functional; conditions: dose 50-200 µg/ml, time 8.0 day
[20] = Induction of wound healing in BALB/c mouse model of full-thickness wounds at 50 ug/ml, TOP bid measured after 2 days (reference value: 30.4 %); type: functional; conditions: dose 50 µg/ml, time 2 day
[21] = test system: RAW264.7; test: Upregulation of phosphorylated Smad2 level in Aprepitant-treated mouse RAW264.7 cells at 2.5 to 20 uM incubated for 4 hrs by Western blot analysis; type: functional, cell-based; conditions: dose 2.5-20 µM
[22] = test system: RAW264.7; test: Induction of phagocytosis in mouse RAW264.7 cells cultured with Escherichia coli ATCC 25922 assessed as number of surviving engulfed bacteria at 5 uM incubated for 24 hrs followed by bacterial exposure for 1 hr and further treated with gentamycin for 2 hrs by plate counting method (reference value: 37); type: functional
[23] = test system: RAW264.7; test: Induction of phagocytosis in mouse RAW264.7 cells assessed as increase in neutral red dye uptake by measuring optical density at 540 nm at 5 uM incubated for 24 hrs followed by dye addition measured after 4 hrs by absorbance based assay (reference value: 0.073); type: functional; conditions: time 28 hrs
[24] = Toxicity in BALB/c mouse model of full-thickness wounds assessed as inflammatory foci in kidney at 200 ug/ml, TOP bid measured upto 8 days by H and E staining based analysis; type: tissue-based; conditions: in vivo, topical_or_ocular, 192 h, dose 200 µg/ml, time < 8 day
[25] = Induction of wound healing in BALB/c mouse model of full-thickness wounds at 100 ug/ml, TOP bid measured after 2 days (reference value: 30.4 %); type: functional; conditions: dose 100 µg/ml, time 2 day
[26] = test system: RAW264.7; test: Induction of phagocytosis in mouse RAW264.7 cells assessed as increase in neutral red dye uptake by measuring optical density at 540 nm at 10 uM incubated for 24 hrs followed by dye addition measured after 4 hrs by absorbance based assay (reference value: 0.073); type: functional; conditions: time 28 hrs
[27] = test system: RAW264.7; test: Induction of phagocytosis in mouse RAW264.7 cells cultured with Escherichia coli ATCC 25922 assessed as number of engulfed bacteria at 5 uM incubated for 24 hrs followed by bacterial exposure measured after 1 hr by plate counting method (reference value: 225); type: functional; conditions: time 25 hrs
[28] = test system: RAW264.7; test: Induction of phagocytosis in mouse RAW264.7 cells assessed as increase in neutral red dye uptake by measuring optical density at 540 nm at 2.5 uM incubated for 24 hrs followed by dye addition measured after 4 hrs by absorbance based assay (reference value: 0.073); type: functional; conditions: time 28 hrs
[29] = test system: Bacillus subtilis; test: Antimicrobial activity against Bacillus subtilis CMCC 63501 assessed as microbial growth inhibition at 100 uM; type: functional, organism-based
[30] = species: Mus musculus; test: Induction of wound healing in BALB/c mouse model of full-thickness wounds assessed as increase in number of blood vessels in wound skin at 50 ug/ml, TOP bid measured after 4 days by IHC analysis; type: functional; conditions: dose 50.0 µg/ml, time 4.0 day
[31] = test system: NIH3T3; test: Effect on cell migration in mouse 3T3 cells at 20 uM incubated upto 48 hrs by scratch healing assay; type: functional, cell-based

Substance: H-KPNPDRFYGLM-NH2
- Activity [1]: Active
- Activity [2]: 77.1%
- Activity [3]: Active
- Activity [4]: Active
- Activity [5]: 30
- Activity [6]: Active
- Activity [7]: 193.8%
- Activity [8]: 117.3%
- Activity [9]: 35.9%
- Activity [10]: 181.4%
- Activity [11]: Active
- Activity [12]: 46.7 pg/mL
- Activity [13]: inactive
- Activity [14]: Active
- Activity [15]: 72.1%
- Activity [16]: 40.2%
- Activity [17]: Active
- Activity [18]: Active
- Activity [19]: Active
- Activity [20]: 38.9%
- Activity [21]: inactive
- Activity [22]: 29
- OD [23]: 0.103
- Activity [24]: Non-Toxic
- Activity [25]: 46.6%
- OD [26]: 0.107
- Activity [27]: 302
- OD [28]: 0.097
- Activity [29]: inactive
- Activity [30]: Active
- Activity [31]: inactive

Source: ChEMBL document CHEMBL5375968, “Peptide TK-HR from the Skin of Chinese Folk Medicine Frog Hoplobatrachus Rugulosus Accelerates Wound Healing via the Activation of the Neurokinin-1 Receptor” (J Med Chem, 2023)
